Laboratory results from patent US4740501A (priority 1985, dated 1988).

What was measured:
[1] = test system: Raji B-lymphoma; test: Tumor cell survival (trypan blue), continuous exposure; assay type: cell-based, Human
[2] = test system: ALL (N cell leukemia); test: Survival of fresh human leukemic cells, continuous exposure; assay type: cell-based; settings: for % tumor cell survival: ALL
[3] = test system: L1210 leukemia; test: cells; assay type: cell-based, mice
[4] = test system: MJY-alpha monolayers; test: Incorporation of radiolabeled precursors; assay type: cell-based
Method: The metabolism of treated MJY-alpha mammary tumor cell cultures were screened by monitoring the uptake and incorporation of 3H-uridine, 3H-thymidine, and 35S-methionine. Cultures were treated as described and given radiolabeled precursors in treatment medium at 0-24 for 24 to 48 hours during the treatment periods.
Levels of radioactivity incorporated into the cells were determined following harvesting of the cells on glass filters using a Mash II cell harvester. Each sample was examined in quadruplicate.
In addition to determining cellular viability by trypan blue exclusion, the levels of metabolic activity of PTT.119-treated cells were compared to solvent-treated and untreated controls. Confluent MJY-alpha monolayers were again processed as previously described and […], […], ^3 H-thymidine, and ^35 S-methionine incorporation quantitated during the 24 and 48 hour treatment periods. Following 24 hour tripeptide treatment, the only parameter that was substantially depressed compared to control cultures was the incorporation of ^35 S-radioactivity into cells treated with 15 uM PTT.119 (Table 10).

[5] = test system: MMTV; test: Extracellular MMTV protein by ELISA; assay type: cell-based, mouse; settings: for ug MMTV protein/150 cm^2 culture: untreated 20.32
Method: Extracellular MMTV was quantitated using a modification of a direct Enzyme-Linked Immunosorbent Assay (ELISA) technique devised by Khan et al. (1982). Nunc immunoplates were sensitized with MMTV preparations disrupted in 2% NP-40 and serially diluted in 0.15M Na2 CO3 -0.035M NaHCO3 buffer, pH 8.6, by incubation in a moist chamber for 18 hours at 4° C. Wells were washed three times between all procedural steps with 0.01M phosphate-buffered-saline with 0.5% Tween 80, pH 7.4 (Pi/Na/Tween). Sensitized wells were then sequentially subjected to 1 hour incubations with (1) 0.5% bovine serum albumin in Pi/NaCl/Tween (4° C.), followed by either (2) preimmune rabbit sera or multivalent anti-MMTV antisera diluted 1:50 in Pi/NaCl/Tween at 37° C., and finally (3) a 1:1000 dilution of alkaline phosphatase-conjugated goat anti-rabbit IgG (Dynatech, Inc.) at 37° C. Reactions were terminated with 25 ul of 3N NaOH after incubation for 1 to 2 hours at 37° C. Intensity of the color reactions were determined at […] using a Dynatech ELISA plate reader. The detection limit of the assay was 3-5 ng MMTV protein per well.

[6] = test system: B-type mouse mammary tumor virus particles in MJY-alpha cells; test: Electron microscopy of thin sections; assay type: cell-based; settings: 25 ug/ml for 2 hours
Method: Thin sections MJY-alpha mammary tumor cells were prepared according to standard techniques for electronmicroscopy. The magnification was scaled where the bar was equal to one um. […] The tumor virus particles are shown in the insert and also throughout the lower two-thirds of the photograph as rope-like sections. […] It should be noted that numerous microvilli are present with budding particles also in evidence. […] After that treatment period, the layer of cells was washed and then reincubated for one (1) day prior to further processing for electronmicroscopy. Although there are some microvilli with budding particles present, the number of such particles and buds is reduced. […] The layer was then similarily washed and reincubated for a two (2) days prior to further processing for electronmicroscopy.

CCOC(=O)[C@H](CCSC)NC(=O)[C@H](Cc1cccc(N(CCCl)CCCl)c1)NC(=O)[C@@H](N)Cc1ccc(F)cc1.Cl [PTT.119, 3-(p-fluorophenyl)-L-alanyl-3-[m-bis(2-chloroethyl)aminophenyl]-L-alanyl-L-methionine ethyl ester hydrochloride]
% tumor cell survival ([1]; 10 ug/ml, 1 hr): 98% | % tumor cell survival ([1]; 10 ug/ml, 4 hr): 98% | % tumor cell survival ([1]; 10 ug/ml, 24 hr): 82% | % tumor cell survival ([1]; 25 ug/ml, 1 hr): 100% | % tumor cell survival ([1]; 25 ug/ml, 4 hr): 97% | % tumor cell survival ([1]; 25 ug/ml, 8 hr): 97% | % tumor cell survival ([1]; 25 ug/ml, 24 hr): 35% | % tumor cell survival ([1]; 50 ug/ml, 1 hr): 94% | % tumor cell survival ([1]; 50 ug/ml, 4 hr): 90% | % tumor cell survival ([1]; 50 ug/ml, 8 hr): 76% | % tumor cell survival ([1]; 50 ug/ml, 24 hr): 20% | reduction of cell survival ([2]; ALL lymphoblasts, as low as 1 ug): 75% | % tumor cell survival ([2]; 1 ug/ml, 1 hr): 98% | % tumor cell survival ([2]; 1 ug/ml, 4 hr): 76% | % tumor cell survival ([2]; 1 ug/ml, 24 hr): 25% | % tumor cell survival ([2]; 5 ug/ml, 1 hr): 46% | % tumor cell survival ([2]; 5 ug/ml, 4 hr): 29% | % tumor cell survival ([2]; 5 ug/ml, 24 hr): 7% | % tumor cell survival ([2]; 10 ug/ml, 1 hr): 32% | % tumor cell survival ([2]; 10 ug/ml, 4 hr): 15% | % tumor cell survival ([2]; 10 ug/ml, 24 hr): 0% | % tumor cell survival ([2]; 25 ug/ml, 1 hr): 15% | % tumor cell survival ([2]; 25 ug/ml, 4 hr): 15% | % tumor cell survival ([2]; 25 ug/ml, 24 hr): 0% | % tumor cell survival ([2]; 50 ug/ml, 1 hr): 0% | % tumor cell survival ([2]; 50 ug/ml, 4 hr): 0% | % tumor cell survival ([2]; 50 ug/ml, 24 hr): 0% | T.C.D.100 [3]: 37.5 | elimination of viable population [3]: completely eliminated the viable population | surviving fraction at end of examination period [3]: 15% | percentage of viable cells ([3]; 3.75 µM): 40-50% | IC50 ([3]; Mus musculus, L1210, 24 h, read-out: T.C.D.50): 9 µM | Relative level of incorporation of radiolabels (%) ([4]; 1.5 uM, 24 hours, 3H-thy): 91.2% | Relative level of incorporation of radiolabels (%) ([4]; 1.5 uM, 24 hours, 3H-ur): 90.9% | Relative level of incorporation of radiolabels (%) ([4]; 1.5 uM, 24 hours, 35S-met): 103.3% | Relative level of incorporation of radiolabels (%) ([4]; 1.5 uM, 48 hours, 3H-thy): 118.1% | Relative level of incorporation of radiolabels (%) ([4]; 1.5 uM, 48 hours, 3H-ur): 103.4% | Relative level of incorporation of radiolabels (%) ([4]; 1.5 uM, 48 hours, 35S-met): 96.1% | Relative level of incorporation of radiolabels (%) ([4]; 7.5 uM, 24 hours, 3H-thy): 99.0% | Relative level of incorporation of radiolabels (%) ([4]; 7.5 uM, 24 hours, 3H-ur): 100.6% | Relative level of incorporation of radiolabels (%) ([4]; 7.5 uM, 24 hours, 35S-met): 97.2% | Relative level of incorporation of radiolabels (%) ([4]; 7.5 uM, 48 hours, 3H-thy): 83.1% | Relative level of incorporation of radiolabels (%) ([4]; 7.5 uM, 48 hours, 3H-ur): 108.6% | Relative level of incorporation of radiolabels (%) ([4]; 7.5 uM, 48 hours, 35S-met): 89.9% | depression of 3H-thymidine incorporation ([4]; 7.5 uM, second day of treatment): 17% | Relative level of incorporation of radiolabels (%) ([4]; 15.0 uM, 24 hours, 3H-thy): 103.6% | Relative level of incorporation of radiolabels (%) ([4]; 15.0 uM, 24 hours, 3H-ur): 100.1% | Relative level of incorporation of radiolabels (%) ([4]; 15.0 uM, 24 hours, 35S-met): 82.7% | Relative level of incorporation of radiolabels (%) ([4]; 15.0 uM, 48 hours, 3H-thy): 82.9% | Relative level of incorporation of radiolabels (%) ([4]; 15.0 uM, 48 hours, 3H-ur): 80.5% | Relative level of incorporation of radiolabels (%) ([4]; 15.0 uM, 48 hours, 35S-met): 80.4% | reductions in levels of cell-associated radioactivity, all three precursors ([4]; 15 uM, second day of treatment): 20% | levels of extracellular MMTV compared to control cells ([5]; 0.15, 1.5 and 7.5 uM, after 10 in vitro passages): less than 50% | ug MMTV protein/150 cm^2 culture ([5]; continual 0.15 uM, passage 1): 17.4 µg | ug MMTV protein/150 cm^2 culture ([5]; continual 0.15 uM, passage 5-6): 16.8 µg | ug MMTV protein/150 cm^2 culture ([5]; continual 0.15 uM, passage 9-10): 9.52 µg | ug MMTV protein/150 cm^2 culture ([5]; continual 1.5 uM, passage 5-6): 15.9 µg | ug MMTV protein/150 cm^2 culture ([5]; continual 1.5 uM, passage 9-10): 7.5 µg | ug MMTV protein/150 cm^2 culture ([5]; continual 7.5 uM, passage 5-6): 11.8 µg | ug MMTV protein/150 cm^2 culture ([5]; continual 7.5 uM, passage 9-10): 8.3 µg | MMTV protein, % of control level ([5]; day 1, 15 uM 2 hr pulse): 78% | ug MMTV protein/75 cm^2 flask ([5]; day 1, 15 uM 2 hr pulse, control 20.6): 16.0 µg | MMTV protein, % of control level ([5]; day 1, 15 uM 4 hr pulse): 81% | ug MMTV protein/75 cm^2 flask ([5]; day 1, 15 uM 4 hr pulse, control 20.6): 16.7 µg | MMTV protein, % of control level ([5]; day 1, 37.5 uM 0.5 hr pulse): 70% | ug MMTV protein/75 cm^2 flask ([5]; day 1, 37.5 uM 0.5 hr pulse, control 20.6): 14.4 µg | MMTV protein, % of control level ([5]; day 1, 37.5 uM 1.0 hr pulse): 53% | ug MMTV protein/75 cm^2 flask ([5]; day 1, 37.5 uM 1.0 hr pulse, control 20.6): 11.0 µg | MMTV protein, % of control level ([5]; day 2, 15 uM 2 hr pulse): 64% | ug MMTV protein/75 cm^2 flask ([5]; day 2, 15 uM 2 hr pulse, control 19.3): 12.3 µg | MMTV protein, % of control level ([5]; day 2, 15 uM 4 hr pulse): 62% | ug MMTV protein/75 cm^2 flask ([5]; day 2, 15 uM 4 hr pulse, control 19.3): 11.9 µg | MMTV protein, % of control level ([5]; day 2, 37.5 uM 0.5 hr pulse): 57% | ug MMTV protein/75 cm^2 flask ([5]; day 2, 37.5 uM 0.5 hr pulse, control 19.3): 11.0 µg | MMTV protein, % of control level ([5]; day 2, 37.5 uM 1.0 hr pulse): 58% | ug MMTV protein/75 cm^2 flask ([5]; day 2, 37.5 uM 1.0 hr pulse, control 19.3): 11.2 µg | MMTV protein, % of control level ([5]; day 7, 15 uM 2 hr pulse): 31% | ug MMTV protein/75 cm^2 flask ([5]; day 7, 15 uM 2 hr pulse, control 35.2): 11.0 µg | MMTV protein, % of control level ([5]; day 7, 15 uM 4 hr pulse): 22% | ug MMTV protein/75 cm^2 flask ([5]; day 7, 15 uM 4 hr pulse, control 35.2): 7.6 µg | MMTV protein, % of control level ([5]; day 7, 37.5 uM 0.5 hr pulse): 16% | ug MMTV protein/75 cm^2 flask ([5]; day 7, 37.5 uM 0.5 hr pulse, control 35.2): 5.8 µg | MMTV protein, % of control level ([5]; day 7, 37.5 uM 1.0 hr pulse): 3% | ug MMTV protein/75 cm^2 flask ([5]; day 7, 37.5 uM 1.0 hr pulse, control 35.2): 0.9 µg | number of microvilli budding particles and buds ([6]; reincubated 1 day): reduced | number of microvilli ([6]; reincubated 2 days): reduced even farther
